Assay results from BigSolDB 2.1.

NS(=O)(=O)c1ccccc1
Conditions	solubility (mole fraction)
in acetone, 273.15 K	0.117
in acetone, 279.15 K	0.123
in acetone, 283.45 K	0.13
in acetone, 288.95 K	0.138
in acetone, 293.25 K	0.145
in acetone, 298.85 K	0.156
in acetone, 303.15 K	0.165
in acetone, 308.15 K	0.176
in acetone, 313.15 K	0.188
in acetone, 317.65 K	0.201
in acetone, 323.15 K	0.217
in acetonitrile, 273.15 K	0.0348
in acetonitrile, 279.15 K	0.0396
in acetonitrile, 283.45 K	0.0446
in acetonitrile, 288.95 K	0.0507
in acetonitrile, 293.25 K	0.0568
in acetonitrile, 298.85 K	0.0649
in acetonitrile, 303.15 K	0.0723
in acetonitrile, 308.15 K	0.0817
in acetonitrile, 313.15 K	0.0928
in acetonitrile, 317.65 K	0.104
in acetonitrile, 323.15 K	0.118
in cyclohexanone, 273.15 K	0.114
in cyclohexanone, 279.15 K	0.12
in cyclohexanone, 283.85 K	0.126
in cyclohexanone, 289.15 K	0.134
in cyclohexanone, 293.75 K	0.142
in cyclohexanone, 299.15 K	0.151
in cyclohexanone, 303.75 K	0.161
in cyclohexanone, 309.15 K	0.171
in cyclohexanone, 313.35 K	0.181
in cyclohexanone, 319.15 K	0.195
in cyclohexanone, 324.45 K	0.21
in cyclopentanone, 273.15 K	0.14
in cyclopentanone, 279.15 K	0.146
in cyclopentanone, 283.85 K	0.152
in cyclopentanone, 289.15 K	0.16
in cyclopentanone, 293.75 K	0.167
in cyclopentanone, 299.15 K	0.177
in cyclopentanone, 303.75 K	0.187
in cyclopentanone, 309.15 K	0.201
in cyclopentanone, 313.35 K	0.21
in cyclopentanone, 319.15 K	0.228
in cyclopentanone, 324.45 K	0.245
in dichloromethane, 273.15 K	0.00134
in dichloromethane, 279.15 K	0.00175
in dichloromethane, 283.45 K	0.00214
in dichloromethane, 288.95 K	0.00278
in dichloromethane, 293.25 K	0.00335
in dichloromethane, 298.85 K	0.00424
in dichloromethane, 303.15 K	0.00495
in dichloromethane, 308.15 K	0.00602
in dichloromethane, 312.15 K	0.00691
in ethanol, 273.15 K	0.0159
in ethanol, 279.15 K	0.0182
in ethanol, 283.45 K	0.0199
in ethanol, 288.95 K	0.0231
in ethanol, 293.25 K	0.0261
in ethanol, 298.85 K	0.0307
in ethanol, 303.15 K	0.0355
in ethanol, 308.15 K	0.041
in ethanol, 313.15 K	0.048
in ethanol, 317.65 K	0.0547
in ethanol, 323.15 K	0.0635
in ethyl acetate, 273.15 K	0.0325
in ethyl acetate, 279.15 K	0.036
in ethyl acetate, 283.45 K	0.0389
in ethyl acetate, 288.95 K	0.0429
in ethyl acetate, 293.25 K	0.0467
in ethyl acetate, 298.85 K	0.0517
in ethyl acetate, 303.15 K	0.0563
in ethyl acetate, 308.15 K	0.0615
in ethyl acetate, 313.15 K	0.0682
in ethyl acetate, 317.65 K	0.0736
in ethyl acetate, 323.15 K	0.082
in ethyl formate, 273.15 K	0.018
in ethyl formate, 279.15 K	0.0204
in ethyl formate, 283.45 K	0.0228
in ethyl formate, 288.95 K	0.026
in ethyl formate, 293.25 K	0.0289
in ethyl formate, 298.85 K	0.0327
in ethyl formate, 303.15 K	0.0367
in ethyl formate, 308.15 K	0.0416
in ethyl formate, 313.15 K	0.047
in ethyl formate, 317.65 K	0.0526
in ethyl formate, 323.15 K	0.0596
in isobutanol, 273.15 K	0.00387
in isobutanol, 279.15 K	0.0045
in isobutanol, 283.85 K	0.00537
in isobutanol, 289.15 K	0.00666
in isobutanol, 293.75 K	0.00808
in isobutanol, 299.15 K	0.00996
in isobutanol, 303.75 K	0.012
in isobutanol, 309.15 K	0.0148
in isobutanol, 313.35 K	0.0176
in isobutanol, 319.15 K	0.0214
in isobutanol, 324.45 K	0.0255
in isopentanol, 273.15 K	0.00419
in isopentanol, 279.15 K	0.00488
in isopentanol, 283.85 K	0.00557
in isopentanol, 289.15 K	0.00683
in isopentanol, 293.75 K	0.00804
in isopentanol, 299.15 K	0.00999
in isopentanol, 303.75 K	0.0119
in isopentanol, 309.15 K	0.0148
in isopentanol, 313.35 K	0.0172
in isopentanol, 319.15 K	0.021
in isopentanol, 324.45 K	0.0249
in isopropanol, 273.15 K	0.0076
in isopropanol, 279.15 K	0.00834
in isopropanol, 283.85 K	0.00964
in isopropanol, 289.15 K	0.0119
in isopropanol, 293.75 K	0.0141
in isopropanol, 299.15 K	0.0172
in isopropanol, 303.75 K	0.0213
in isopropanol, 309.15 K	0.0261
in isopropanol, 313.35 K	0.0305
in isopropanol, 319.15 K	0.0371
in isopropanol, 324.45 K	0.0444
in methanol, 273.15 K	0.0295
in methanol, 279.15 K	0.0325
in methanol, 283.45 K	0.0357
in methanol, 288.95 K	0.041
in methanol, 293.25 K	0.046
in methanol, 298.85 K	0.0536
in methanol, 303.15 K	0.061
in methanol, 308.15 K	0.0699
in methanol, 313.15 K	0.0808
in methanol, 317.65 K	0.0923
in methanol, 323.15 K	0.107
in methyl acetate, 273.15 K	0.0423
in methyl acetate, 279.15 K	0.0467
in methyl acetate, 283.45 K	0.0503
in methyl acetate, 288.95 K	0.0556
in methyl acetate, 293.25 K	0.0606
in methyl acetate, 298.85 K	0.0677
in methyl acetate, 303.15 K	0.0743
in methyl acetate, 308.15 K	0.0823
in methyl acetate, 313.15 K	0.0915
in methyl acetate, 317.65 K	0.101
in methyl acetate, 323.15 K	0.113
in n-butanol, 273.15 K	0.00578
in n-butanol, 279.15 K	0.00679
in n-butanol, 283.85 K	0.00798
in n-butanol, 289.15 K	0.00946
in n-butanol, 293.75 K	0.011
in n-butanol, 299.15 K	0.0135
in n-butanol, 303.75 K	0.016
in n-butanol, 309.15 K	0.0195
in n-butanol, 313.35 K	0.0226
in n-butanol, 319.15 K	0.0276
in n-butanol, 324.45 K	0.0323
in n-pentanol, 273.15 K	0.00474
in n-pentanol, 279.15 K	0.00538
in n-pentanol, 283.85 K	0.00616
in n-pentanol, 289.15 K	0.00727
in n-pentanol, 293.75 K	0.00894
in n-pentanol, 299.15 K	0.0111
in n-pentanol, 303.75 K	0.0131
in n-pentanol, 309.15 K	0.0164
in n-pentanol, 313.35 K	0.0188
in n-pentanol, 319.15 K	0.0232
in n-pentanol, 324.45 K	0.0278
in n-propanol, 273.15 K	0.00806
in n-propanol, 279.15 K	0.00907
in n-propanol, 283.85 K	0.0103
in n-propanol, 289.15 K	0.0122
in n-propanol, 293.75 K	0.0143
in n-propanol, 299.15 K	0.0175
in n-propanol, 303.75 K	0.0208
in n-propanol, 309.15 K	0.0254
in n-propanol, 313.35 K	0.0293
in n-propanol, 319.15 K	0.036
in n-propanol, 324.45 K	0.0423
